Article PMC10266261, “A High-Throughput Approach to Identify Specific Neurotoxicants / Developmental Toxicants in Human Neuronal Cell Function Assays” (ALTEX, 2018)
Read-outs that look alike come from different tables or passages of the source.

Key:
cardiomyocytes = settings: specific = cardio-physiologic parameters affected after 30 min at three-fold lower concentration than viability and no effect on viability after 24 h; ref Sirenko et al., 2017; cited from earlier work
[1] = test system: immature human dorsal root ganglia neurons; experiment: cells; type: cell-based; settings: for ratio EC50(V)/EC50(NA): ≥ 3 = specific hit; for classification in the PeriTox screen: three independent screen runs, up to 20 μM
Procedure: The PeriTox test (= UKN5) is based on cells differentiated from the H9 human embryonic stem cell (hESC) line (WA09 line), which was obtained from WiCell (Madison, WI, USA). The import of cells and the experiments were authorized under license no. 170–79-1–4-27 (Robert Koch Institute, Berlin, Germany).
After one hour, 25 μl PDM with 4x concentrated serial dilutions of the test compounds was added to the cells. At 23 h after treatment, the cells were stained with SM and incubated for one additional hour at 37°C.
(§1) Image acquisition was performed with an ArrayScan VTI HCS (high content imaging) microscope (Cellomics, Waltham, MA, USA).
After automated imaging, an algorithm was applied that identified the neuronal somata (based on identified nuclei) and subtracted the somatic area from the total neuronal area to obtain the neurite area (NA), i.e., the number of pixels per field covered by neurites. […] Viability (V) was expressed as percentage of live cells relative to control.
(§2) Neurite area (NA) and viability (V) were always expressed as percentage of the DMSO control. In a first step, matched technical replicates were averaged. […] Curve fitting was performed employing a 4-parameter log-logistic function with least squares fit. The upper asymptote of the fit was forced to 100%, the lower asymptote was variable. The variation of DMSO controls was calculated from pooled values of DMSO controls over several experiments.
For calculation of the benchmark concentration values (BMC), a benchmark response (BMR) of three standard deviations of DMSO solvent controls of all assay plates (= “3 x noise level”) was used. […] To identify specific effects on neurite outgrowth, the EC50 ratio of EC50(viability)/EC50(neurite area) was calculated.
This method uses human immature dorsal root ganglia neurons (iDRG) that are produced from pluripotent stem cells that are still in a phase of neurite growth. Like in the NeuriTox assay, exposure to toxicants in this test is for 24 h, and readouts for viability (V) and neurite area (NA) are also conducted in a similar way (Fig. 7A).

LUHMES cells = experiment: cells; type: cell-based, human; settings: for classification / outcome after hit confirmation or re-testing (EC50 prediction model): EC50 ratio V/NA ≥ 4 specific, < 4 cytotoxic; for LOAEL for neurite area (lowest tested concentration with significant reduction) / classification in the NeuriTox screen: screen; for classification in the NeuriTox screen: hit = NA decreased at concentrations not affecting viability; for ratio EC50(V)/EC50(NA): specificity threshold 4
Procedure: For the NeuriTox test (= UKN4), LUHMES (Lund human mesencephalic) cells were characterized and cultured as described in detail earlier ([Krug et al., 2013]; [Lotharius et al., 2005]; [Scholz et al., 2011]). Briefly, cells were maintained in proliferation medium (PM: AdvDMEM/F12 supplemented with 2 mM glutamine, 1x N2 supplement and 40 ng/ml fibroblast growth factor-2) in PLO/fibronectin coated flasks (50 μg/ml poly-L-ornithine (PLO) and 1 μg/ml fibronectin). For differentiation, cells were seeded at a density of 46,000 cells/cm^2 in PM. After 24 h, they were switched to differentiation medium (DM) containing AdvDMEM/F12 supplemented with 2 mM glutamine, 1x N2 supplement, 2.25 μM tetracycline, 1 mM dibutyryl 3’,5’-cyclic adenosine monophosphate (cAMP), and 2 ng/ml recombinant human glial cell derived neurotrophic factor (GDNF).
For the NeuriTox test, LUHMES cells were differentiated for 48 h and seeded into 96 well plates at a density of 100,000 cells/cm^2 in a volume of 90 μl DM without cAMP and GDNF. Treatment was initiated applying 10 μl of a 10x concentrated treatment solution one hour after seeding. At 24 h after treatment, staining mix (SM) was applied (final concentrations: 1 μg/ml H-33342, 1 μM calcein-AM).
as §1
The procedure was applied as detailed earlier ([Hoelting et al., 2016]; [Stiegler et al., 2011]). After automated imaging, an algorithm was applied that identified the neuronal somata (based on identified nuclei) and subtracted the somatic area from the total neuronal area to obtain the neurite area (NA), i.e., the number of pixels per field covered by neurites. Viability analysis was performed on the same pictures using combined information from H-33342 and calcein channels. Cells with normal-sized nuclei that were calcein-positive were counted as live cells, whereas H-33342 single-positive cells were counted as dead cells. Viability (V) was expressed as percentage of live cells relative to control.
as §2
For calculation of the benchmark concentration values (BMC), a benchmark response (BMR) of three standard deviations of DMSO solvent controls of all assay plates (= “3 x noise level”) was used. […] To identify specific effects on neurite outgrowth, the EC50 ratio of EC50(viability)/EC50(neurite area) was calculated. The NeuriTox test system has a specificity threshold ratio of 4, the PeriTox test system has one of 3 ([Hoelting et al., 2016]; [Krug et al., 2013]).
If V was not affected at the highest tested concentration (HTC), then 4 x HTC was used as surrogate EC50(V) (marked with ♦; for EC25 calculation, the HTC was doubled in this case) ([Krug et al., 2013]).
For the actual screening procedure, a defined workflow was established that contained several pre-determined decision points. All compounds were tested at 1:1000 dilutions of their stock concentration, and at subsequent 3-fold dilution levels. For most compounds, the stock was 20 mM, so that the test concentrations were 20 μM, 6.7 μM, 2.2 μM, 0.7 μM, 0.25 μM, 82 nM, 27 nM, 9 nM, 3 nM, and 1 nM. For 2,2’,4,4’,5,5’-hexabromodiphenyl-ether, chrysene, dibenz(a,h)anthracene, bis(tributyltin) oxide, benzo[g,h,i]perylene, and 2,3,7,8-tetrachlorodibenzo-p-dioxin lower stock concentrations were used.

[2] = Homo sapiens, hit confirmation / re-testing, adjusted concentration range, 24 h, read-out: EC50(NA), neurite area
[3] = Homo sapiens, Neuron, hit confirmation, 24 h, read-out: EC50(NA), neurite area
[4] = Homo sapiens, Neuron, hit confirmation, V not affected at HTC: 4 x HTC used as surrogate, read-out: EC50(V), viability, surrogate marked ♦
[5] = Homo sapiens, 24 h, read-out: EC50(NA), neurite area
[6] = screen data, 24 h exposure, up to 20 μM, read-out: EC50(NA), neurite area
[7] = screen data, 24 h exposure, up to 20 μM, read-out: EC50(V), viability

Cl.NCCc1cc(O)c(O)cc1O [6-Hydroxydopamine hydrochloride]
classification in the cardiotoxicity test method (cardiomyocytes): specific

C=CC(N)=O [Acrylamide]
classification / outcome after hit confirmation (EC50 ratio viability/neurite area ≥ 3) [1]: specific PeriTox hit
ratio EC50(V)/EC50(NA) ([1]; hit confirmation): 3.2
EC50 ([1]; tested at high concentration, 24 h, read-out: EC50(NA), neurite area): 2300 µM

CC(C)(c1ccc(O)cc1)c1ccc(O)cc1 [BPA, bisphenol A]
classification / outcome after hit confirmation or re-testing (EC50 prediction model) (LUHMES cells): no effect up to 100 μM

COc1ccc2cc3[n+](cc2c1OC)CCc1cc2c(cc1-3)OCO2 [Berberine chloride]
EC50 (LUHMES cells; [2]): 23.9 µM
EC50 (LUHMES cells; Homo sapiens, hit confirmation, adjusted concentration range, 24 h, read-out: EC50(V), viability): 126 µM
LOAEL for neurite area (lowest tested concentration with significant reduction) (LUHMES cells; 24 h): 20 µM
classification in the NeuriTox screen (LUHMES cells; up to 20 μM, 24 h): active hit compounds
EC50 [1, 3]: 11.6 µM
EC50 [1, 4]: 165 µM
classification in the PeriTox screen [1]: active hit compounds
classification in the cardiotoxicity test method (cardiomyocytes): generally cytotoxic

O=C1C2CC=CCC2C(=O)N1SC(Cl)(Cl)Cl (centres unmarked) [Captan]
classification / outcome after hit confirmation or re-testing (EC50 prediction model) (LUHMES cells): cytotoxicant with relatively low potency

CNC(=O)Oc1cccc2ccccc12 [Carbaryl]
EC50 (LUHMES cells; [5]): 31 µM
EC50 (LUHMES cells; Homo sapiens, 24 h, read-out: EC50(V), viability): 130 µM
LOAEL for neurite area (lowest tested concentration with significant reduction) (LUHMES cells; 24 h): 20 µM
classification in the NeuriTox screen (LUHMES cells; up to 20 μM, 24 h): active hit compounds
classification in the PeriTox screen [1]: active hit compounds
classification in the cardiotoxicity test method (cardiomyocytes): specific

COc1cc2c(c(OC)c1OC)-c1ccc(OC)c(=O)cc1[C@@H](NC(C)=O)CC2 [Colchicine]
LOAEL for neurite area (lowest tested concentration with significant reduction) (LUHMES cells; 24 h): 0.027 µM
classification in the NeuriTox screen (LUHMES cells; up to 20 μM, 24 h): active hit compounds
classification in the PeriTox screen [1]: active hit compounds

CC/C(=C(/CC)c1ccc(O)cc1)c1ccc(O)cc1 [Diethylstilbestrol]
classification in the NeuriTox screen (LUHMES cells; up to 20 μM, 24 h): active hit compounds
classification in the PeriTox screen [1]: active hit compounds

Oc1c(Cl)cc(Cl)c(Cl)c1Cc1c(O)c(Cl)cc(Cl)c1Cl [Hexachlorophene]
classification in the NeuriTox screen (LUHMES cells; up to 20 μM, 24 h): cytotoxic

CCCCNC(=O)OCC#CI [Iodocarb]
EC50 (LUHMES cells; Homo sapiens, screen data, 24 h exposure, up to 20 μM, read-out: EC50(NA), neurite area): 0.9 µM
EC50 (LUHMES cells; Homo sapiens, screen data, 24 h exposure, up to 20 μM, read-out: EC50(V), viability): 1.2 µM
ratio EC50(V)/EC50(NA) (LUHMES cells; screen data): 1.3
EC50 [1, 3]: 7.8 µM
EC50 [1, 4]: 66 µM
classification in the PeriTox screen [1]: active hit compounds

C[n+]1ccc(-c2ccccc2)cc1.[I-] [MPP^+, 1-methyl-4-phenylpyridinium iodide]
EC50 (LUHMES cells; [2]): 80 µM
classification in the NeuriTox screen (LUHMES cells; up to 20 μM, 24 h): active hit compounds
classification / outcome after hit confirmation (EC50 ratio viability/neurite area ≥ 3) [1]: not active at all

[CH3][Hg][Cl] [Methylmercury (II) chloride]
EC50 (LUHMES cells; [6]): 0.09 µM
EC50 (LUHMES cells; [7]): 0.16 µM
ratio EC50(V)/EC50(NA) (LUHMES cells; screen data): 1.8
classification in the PeriTox screen [1]: active hit compounds

Brc1ccc(Oc2cc(Br)c(Br)cc2Br)c(Br)c1 [PBDE, 2,2’,4,4’,5’-pentabromodiphenylether]
classification / outcome after hit confirmation or re-testing (EC50 prediction model) (LUHMES cells): unspecific cytotoxicants

C=C(C)[C@H]1Cc2c(ccc3c2O[C@@H]2COc4cc(OC)c(OC)cc4[C@@H]2C3=O)O1 [Rotenone]
EC50 (LUHMES cells; [5]): 0.5 µM
EC50 (LUHMES cells; Homo sapiens, read-out: EC50(V), viability, surrogate marked ♦): 40 µM
classification in the NeuriTox screen (LUHMES cells; up to 20 μM, 24 h): active hit compounds
EC50 ([1]; Homo sapiens, Neuron, 24 h, read-out: EC50(NA), neurite area): 0.05 µM
EC50 ([1]; Homo sapiens, Neuron, read-out: EC50(V), viability, surrogate marked ♦): 16.5 µM
ratio EC50(V)/EC50(NA) ([1]; hit confirmation): 330
classification in the PeriTox screen [1]: active hit compounds
classification in the cardiotoxicity test method (cardiomyocytes): generally cytotoxic

Brc1ccc(Oc2ccc(Br)cc2Br)c(Br)c1 [TBDE, 2,2’,4,4’-tetrabromodiphenylether]
classification / outcome after hit confirmation or re-testing (EC50 prediction model) (LUHMES cells): unspecific cytotoxicants

CCN(CC)C(=S)SSC(=S)N(CC)CC [Tetraethylthiuram disulfide]
EC50 (LUHMES cells; [6]): 3.7 µM
EC50 (LUHMES cells; [7]): 2.9 µM
ratio EC50(V)/EC50(NA) (LUHMES cells; screen data): 0.8

O=P(Oc1ccccc1)(Oc1ccccc1)Oc1ccccc1 [Triphenyl phosphate]
classification / outcome after hit confirmation or re-testing (EC50 prediction model) (LUHMES cells): clearly non-toxic at concentrations up to 20 μM
EC50 (LUHMES cells; Homo sapiens, read-out: toxicity EC50): > 200 µM

CCCC(CCC)C(=O)O [VPA, valproic acid]
classification / outcome after hit confirmation (EC50 ratio viability/neurite area ≥ 3) [1]: cytotoxic

CCC[CH2][Sn]([CH2]CCC)([CH2]CCC)[O][Sn]([CH2]CCC)([CH2]CCC)[CH2]CCC [bis(tributyltin)oxide]
classification in the NeuriTox screen (LUHMES cells; up to 20 μM, 24 h): cytotoxic

O=C1N[C@@H]2C(=C[C@H](O)[C@@H](O)[C@H]2O)c2cc3c(c(O)c21)OCO3 [narciclasine]
neurite area vs solvent control (LUHMES cells; 50 nM, 24 h, positive control): significantly reduced

CC(C)(C)C(O)(CCc1ccc(Cl)cc1)Cn1cncn1 (centres unmarked) [tebuconazole]
EC50 (LUHMES cells; [2]): 142 µM
EC50 (LUHMES cells; Homo sapiens, re-testing, extended concentration range, read-out: toxicity EC50): 238 µM
